Earlier results in patent US20200188476A1, “ANTI-MICROBIAL AGENT-POLYMER CONJUGATES AND METHODS OF USE THEREOF” (The Regents of the University of California, priority 2017, published 2020).

Experiments:
bacteria [1] = tested on: bacteria
[2] = human, in vivo
bacteria [3] = tested on: bacteria; remark: listed apart in the source

Substance: Polymyxin B nonapeptide [nonapeptide of polymyxin B]
- reduction of toxicity in cell culture relative to polymyxin B (cell culture): about 100 fold
- reduction of antibacterial activity relative to polymyxin B (bacteria [1]): 2-64 fold

Substance: colistin
- overall incidence of neurotoxicity or neuropathy [2]: 7.3%

Substance: octanoyl polymyxin B heptapeptide
- concentration that inhibits the growth of bacteria (bacteria [3]): 128 µg/mL

Substance: octanoyl polymyxin B nonapeptide
- inhibition of bacterial growth (bacteria [3]): very potent agents to inhibit bacterial growth

Substance: octanoyl polymyxin B octapeptide
- inhibition of bacterial growth (bacteria [3]): very potent agents to inhibit bacterial growth
